Measurements as given in US20230226061A1, “COMBINATION CANCER THERAPY WITH DYRK1 INHIBITORS AND INHIBITORS OF THE RAS-RAF-MEK-ERK (MAPK) PATHWAY” (Felicitex Therapuetics, Inc., priority 2022, published 2023).
Where two headings read alike, the source gives them in different places. One block for each compound: values may come before it.

Experiments:
[1] = tested on: ovarian cancer OVCAR cells (wild KRAS); assay: Cell viability assay in 2D cell culture (CellTiter-Glo), OVCAR; assay type: cell-based; settings: for EC50: 96 h
[2] = tested on: NSCLC A549 cells (KRAS-G12S); assay: Cell viability assay in 2D cell culture (CellTiter-Glo), A549; settings: for EC50: A549, 96 h
[3] = tested on: NSCLC H1975 cells (wild-type KRAS); assay: Cell viability assay in 2D cell culture (CellTiter-Glo), H1975; assay type: cell-based; settings: for EC50: Homo sapiens, NCI-H1975, 96 h, H1975, 96 h
[4] = tested on: 3D spheroids of NSCLC H23 cells (KRAS-G12C); assay: Cell viability assay in 3D cell culture (spheroids), H23; assay type: cell-based; settings: Homo sapiens, NCI-H23, H23 3D spheroids, read-out: EC50 for trametinib
Description: (§1) For the treatment, 50 μL of media was removed from each well and replaced with fresh media with compounds. […] If the treatment time exceeded 4 days, 70 μL of media in each well was replaced with fresh media containing the test compound every fourth day. Each treatment was performed in duplicate. […] Prior to analysis, the spheroids were photographed at 50× magnification.
as §1, with “magnification” for “magnification.”

[5] = tested on: NSCLC H23 cells (KRAS-G12C); assay: Cell viability assay in 2D cell culture (CellTiter-Glo), H23; settings: for EC50: Homo sapiens, NCI-H23, 96 h
[6] = tested on: quiescent and proliferating pancreatic cancer cells; settings: reported by Ewton et al. 2011; cited from earlier work
[7] = tested on: DYRK1B, MAPK, p27 in SW620 cells; assay: Western blot analysis of protein expression in SW620 cells; assay type: cell-based; settings: SW620, 20 nM trametinib and 5 μM compound I-7, vs trametinib alone
Description: For Western Blot analysis cells were seeded into 6-well plates at 5×10^5-9×10^5 cells/well (depending on the cell size and rate of proliferation), allowed to attach for 24 hours, then treated with compounds for 24 hours, and harvested. Immunoblotting was performed using conventional techniques, as described in Cell Signaling Technologies Western Blotting protocol (www.cellsignal.com).
Antibodies used for blotting were from Cell Signaling Technology (CST): DYRK1B (D40D1) Rabbit mAb #5672; β-Actin (13E5) Rabbit mAb #4970; Anti-rabbit IgG, HIRP-linked Antibody #7074. The Primary Antibody Dilution Buffer 1×TBST with 5% BSA (CST #9998) was used. For detection, SignalFire™ ECL Reagent (CST #6883) was used.
The expression levels of DYRK1B, ph-t202 MAPK, total MAPK, ph-S10 p27, total p27 and β-actin in SW620 cells following the 24 hours treatment with trametinib or combination of trametinib and compound I-7 as observed by Western blot analysis are shown in FIG. 13. The expression of DYRK1B protein was compared to that in untreated cells incubated in regular growth medium containing FBS (FBS+) or serum free medium (FBS−), single treatment with trametinib to the treatment with combination of trametinib and compound I-7.

[8] = tested on: NSCLC H2122 cells (KRAS-G12C); assay: Cell viability assay in 2D cell culture (CellTiter-Glo), H2122
[9] = tested on: H2122 NSCLC cells (KRAS G12C); assay: FACS analysis of cell cycle distribution (acridine orange), H2122; assay type: cell-based
[10] = tested on: colon cancer SW620 cells (G12V); assay: FACS analysis of cell cycle distribution (acridine orange), SW620; assay type: cell-based; settings: SW620, 5 μM Compound I-7 and 20 nM trametinib, 24 hours
Description: SW620 cells were cultured, treated, and analyzed as described in Example 1. The results when different concentrations of trametinib, Compound I-7, or both trametinib and Compound I-7 are present are shown in FIG. 10.

[11] = tested on: NSCLC H358 cells (KRAS-G12C); assay: Cell viability assay in 2D cell culture (CellTiter-Glo), H358
[12] = H2122, 5 μM Compound I-7 and 100 nM AMG-510, FBS+
[13] = H2122, 5 μM Compound I-7 and 100 nM MRTX 849, 48 hours

- EC50 ([1]; Compound I-7 not present, highest selumetinib concentration 50 μM): 238000 nM
- EC50 ([1]; Compound I-7 present at 1 μM, read-out: EC50 for selumetinib): 173000 nM
- EC50 ([1]; Compound I-7 present, read-out: EC50 for selumetinib): < 100 nM
- EC50 ([2]; read-out: EC50 for selumetinib, Compound I-7 not present): 2350 nM
- EC50 ([2]; read-out: EC50 for selumetinib, Compound I-7 present at 3 μM): 920 nM
- EC50 ([2]; read-out: EC50 for selumetinib, Compound I-7 present at 6 μM): 10 nM
- EC50 ([3]; Compound II-1 not present, highest selumetinib concentration 20 μM): 59000 nM
- EC50 ([3]; Compound II-1 present at 1 μM, read-out: EC50 for selumetinib): 130 nM
SMILES: Cn1cnc2c(F)c(Nc3ccc(Br)cc3Cl)c(C(=O)NOCCO)cc21 [selumetinib]

- EC50 ([2]; read-out: EC50 for trametinib, Compound I-7 not present): 16.2 nM
- EC50 ([2]; read-out: EC50 for trametinib, Compound I-7 present at 2.2 μM): 16 nM
- EC50 ([2]; read-out: EC50 for trametinib, Compound I-7 present at 6.73 μM): 3.2 nM
SMILES: CC(=O)Nc1cccc(-n2c(=O)n(C3CC3)c(=O)c3c(Nc4ccc(I)cc4F)n(C)c(=O)c(C)c32)c1 [trametinib]
- EC50 ([4]; Compound I-7 not present): 1.7 nM
- EC50 ([4]; Compound I-7 present at 5 μM): 1.2 nM
- EC50 ([4]; Compound I-7 present at 10 μM): < 0.01 nM
- EC50 ([5]; read-out: EC50 for trametinib, H23 2D, 96 h, Compound I-7 not present): 19.2 nM
- EC50 ([5]; read-out: EC50 for trametinib, H23 2D, 96 h, Compound I-7 present at 0.12 μM): 15.5 nM
- EC50 ([5]; read-out: EC50 for trametinib, H23 2D, 96 h, Compound I-7 present at 3.3 μM): 11.8 nM

SMILES: COc1ncc2cc(C(=O)Nc3cc(C(=O)NCc4cccc(Cl)c4)ccc3Cl)c(=O)[nH]c2n1 [TC-S 7004]
- effectiveness against quiescent and proliferating cancer cells in vitro [6]: effective against both quiescent and proliferating cancer cells

SMILES: CCOC(=N)c1nc2ccc3ncnc(Nc4cc(F)c(F)cc4Cl)c3c2s1 [Compound I-7]
- phosphorylation of p27 (Western blot) [7]: decrease of the phosphorylation of p27
- total levels of p27 (Western blot) [7]: decrease
- effect of combination on cytotoxicity ([8]; H2122, combined with AMG-510): synergistic
- effect of combination on cytotoxicity ([8]; H2122, combined with MRTX-849): synergistic
- apoptotic cells (sub-G0 fraction) [9, 12]: large increase in apoptotic cells
- proportion of quiescent cells [9, 12]: no such increase in proportion of quiescent cells was observed
- apoptotic cells (sub-G0 population) [9, 13]: significant increases in apoptotic cells
- fraction of cells in G0 [9, 13]: reduced the fraction of cells in G0
- effect of combination on cytotoxicity of selumetinib ([2]; A549, combined with selumetinib): significant increase in cytotoxicity
- effect of combination on cytotoxicity ([2]; A549, combined with trametinib): synergistic
- effect of combination on cytotoxicity ([5]; H23, combined with trametinib): synergistic
- apoptotic cells (sub-G0 population) [10]: significant increases in apoptotic cells
- fraction of cells in G0 ([10]; vs trametinib alone): reduced the fraction of cells in G0

SMILES: c1cncc(-c2ccnc3ccc(-c4c[nH]c5ncccc45)cc23)c1 [Compound II-1]
- effect of combination on cytotoxicity ([1]; combined with selumetinib): synergistic effect
- effect of combination on cytotoxicity ([11]; H358, combined with AMG-510): synergistic
- effect of combination on cytotoxicity ([11]; H358, combined with MRTX-849): synergistic
- effect of combination on cytotoxicity ([3]; H1975, combined with selumetinib): synergistic effect
